Tested on: Rat C6 glioma (ATCC No. CCL107)
Assay: anti-inflammatory activity: isoproterenol-induced intracellular cAMP synthesis
Assay type: cell-based
Conditions: cAMP after 30 min with (−)-isoproterenol
Description: Anti-inflammatory activity of several of the 6,9-disubstituted purine derivatives of this invention was determined; kinetin was also evaluated as a control. Rat C6 glioma (ATCC No. CCL107) was cultivated in monolayer in serum-free chemically defined medium containing Ham's F10/minimal essential medium (1:1 v/v), 2 mM L-glutamine, 1% (v/v) minimal essential medium vitamins (100×), 1% (v/v) minimal essential medium nonessential amino acids (100×), 100 U/ml penicillin, […], and 30 nM sodium selenite. Incubation was performed at 37° C. in a humidified atmosphere. The assays were performed in the logaritmic growth phase at a density of 2.5×10^5 cells/cm^2. Intracellular cAMP synthesis was induced by addition of 5 mM (−)-isoproterenol; various amounts of test compounds were added at the same time as the (−)-isoproterenol. After 30 min incubation at 37° C., the medium was removed and the cellular amount of cAMP was determined using the cAMP-enzyme immunoassay kit from Amersham. The I50 value was determined from a dose-response curve in duplicate.

**Q.** What does the source list for `c1coc(CNc2ncnc3c2ncn3C2CCCCO2)c1` (centres unmarked) [6-furfurylamino-9-(2-tetrahydropyranyl)purine]?
**A.** IC50 (Rattus norvegicus, C6 glioma, 0.5 h, read-out: Anti-inflammatory Activity I50): 13 µM; Anti-inflammatory Activity Effect: Inhibition
